Assay results taken from patent US10470986B2, “Resorcinol compounds for dermatological use” (Conopco, Inc., priority 2013, dated 2019).

Experiments:
[1] = test system: mushroom tyrosinase (Sigma T3824); assay: Mushroom Tyrosinase Inhibition Assay; type: biochemical; conditions: 10 μM compound, 300 μM L-Tyrosine, 84 units/mL enzyme, pH 6.5, 15 min at room temperature
Method: 10 μM compound, 300 μM L-Tyrosine, and 84 units/mL of mushroom tyrosinase (Sigma T3824) were combined into 0.05 M potassium monophosphate buffer at pH=6.5, and incubated for 15 min at room temperature. Absorbance was recorded at 490 nm. % tyrosinase inhibition was calculated as follows: (AbsDMSO−Abscmpd)/AbsDMSO×100. The assay was performed for various compounds described herein, as well as for control compounds 4-ethyl resorcinol (4ER), 4-isopropylresorcinol (4IPR), 4-hexylresorcinol (4HR), 4-cyclohexylresorcinol (4CHR), 5-methylresorcinol (5MR), kojic acid (KA), and hydroquinone (HQ), structures of which are shown below.

[2] = test system: B16F1 cells; assay: B16 Melanin Assay; type: cell-based; conditions: 1 mM Theophylline stimulated, 72 h, media absorbance 405 nm corrected for viability (Calcein-AM); compound concentration not stated
Method: After trypsinization, cells were seeded at 3,000 cells per well in a 96-well plate and allowed to attach overnight. 1 mM Theophylline was used to stimulate melanogenesis, and the compound of interest was added. […] (AbsDMSO/CalceinDMSO-[…]/CalceinDMSO×100. The assay was performed for various compounds described herein, as well as for control compounds 4ER, 4IPR, 4HR, 4CHR, 5MR kojic acid, and hydroquinone. Results are shown in Table 2.

[3] = test system: MelanoDerm (Mel-300-B); assay: Mattek 3D Skin Equivalents, MelanoDerm (Mel-300-B) assay; type: cell-based, human; conditions: every other day, 14 days
Excerpt: Many people at different stages of their life are concerned with the degree of pigmentation of their skin and may wish to reduce the skin darkening, or may wish to lighten or even-tone their natural skin color. The mechanism by which skin pigmentation is formed, melanogenesis, is particularly complex and schematically involves the following main steps: Tyrosine→L-Dopa→Dopaquinone→Dopachrome→Melanins. The first two reactions in this series are catalyzed by the enzyme tyrosinase. The activity of tyrosinase is promoted by the action of a-melanocyte stimulating hormone or UV rays. It is well established that a substance has a depigmenting effect if it acts directly on the vitality of the epidermal melanocytes where melanogenesis normally occurs and/or if it interferes with one of the stages in melanin biosynthesis. Pigmentation disorders can take a variety of forms like hyperpigmentation, hypopigmentation, and uneven pigmentation, and include but are not limited to melasma (mask of pregnancy or chloasma), liver spots (which often develop with age) and leukoderma such as vitiligo. […] The degree of pigmentation disorders of the skin in many cases increases with the age of the individuals. Because of the involvement of tyrosinase in melanogensis, tyrosinase inhibition assays are often used to screen potential skin lightening agents. Some mushroom tyrosinases (such as that from Agaricus bisporus) are homologous with mammalian tyrosinase, and mushroom tyrosinase is often used in inhibition assays due to its ready commercial availability. However, the enzyme inhibition assays may not be as good an indicator of activity as assays which are more similar to the intended clinical or cosmetic use, such as the MatTek Corporation's MelanoDerm™ Skin Model (a system which consists of normal, human-derived epidermal keratinocytes and melanocytes formed into a multilayered model of human epidermis).
MelanoDerm (Mel-300-B) assay was conducted according to the manufacturer's instruction (MatTek Corporation). Every other day, the test articles were administered into the EPI-100-NMM-113 culture medium, and positive control, 25 uL of 2% Kojic acid was applied topically. After 14 days, tissue viability and melanocyte morphology were visually verified and tissue melanin was extracted and quantitated against a standard curve. % melanin was calculated as follows: (MelaninDMSO−Melanincomp)/MelaninDMSO×100. The assay was performed for various compounds described herein, as well as for control compounds 4ER, 4IPR, 4HR, 4CHR, kojic acid, and hydroquinone.

SMILES	Mushroom Tyrosinase (% remaining enzyme activity), % TYR Activity [1] [%]	B16 Media Melanin (% Melanin), % Melanin B16 [2] [%]	MatTek Assay (% Melanin), % Melanin 3D EpiDerm ([3]; 10 μM in culture medium) [%]	MatTek Assay (% Melanin), % Melanin 3D EpiDerm ([3]; 30 μM in culture medium) [%]	MatTek Assay (% Melanin), % Melanin 3D EpiDerm ([3]; positive control, 25 uL of 2% Kojic acid applied topically) [%]
O=c1cc(CO)occ1O [Kojic Acid, kojic acid, reference compound]	84	100	100	100	75
CCCCCCc1ccc(O)cc1O [Compound 4HR, 4-hexylresorcinol, reference compound]	1	71	93	72	–
Cc1cc(O)cc(O)c1CC(F)(F)F [4,5TFEMR, 4-(2,2,2-trifluoroethyl)-5-methylbenzene-1,3-diol]	–	90	81	72	–
Oc1cc(O)c(C2CCCCC2)c(C(F)(F)F)c1 [4,5CHTFMR]	100	65	89	–	–
Cc1cc(O)cc(O)c1C(C)C [4,5IPMR, 4-isopropyl-5-methylbenzene-1,3-diol]	–	71	102	72	–
Oc1cc(O)c(C2CCCCC2)c(F)c1 [4,5CHFR, 4-cyclohexyl-5-fluorobenzene-1,3-diol]	1	51	87	81	–
Cc1cc(O)cc(O)c1 [Compound 5MR, 5-methylresorcinol, reference compound]	100	100	–	–	–
Oc1ccc(O)cc1 [Hydroquinone, hydroquinone, reference compound]	100	100	94	92	–
CCc1ccc(O)cc1O [Compound 4ER, 4-ethyl resorcinol, reference compound]	2	48	84	61	–
CCCCCCc1c(C)cc(O)cc1O [4,5HMR, 4-hexyl-5-methylbenzene-1,3-diol]	10	78	77	68	–
Oc1cc(O)c(Cc2ccccc2)c(C(F)(F)F)c1 [4,5BnTFMR, 2-Benzyl-1,5-dihydroxy-3-trifluoromethyl-benzene]	93	82	–	75	–
Cc1cc(O)cc(O)c1C1CCCCC1 [4,5CHMR, 4-cyclohexyl-5-methylbenzene-1,3-diol]	22	58	66	44	–
CCC(C)c1c(C)cc(O)cc1O (centres unmarked) [4,5sBMR, 4-sec-butyl-5-methylbenzene-1,3-diol]	100	76	75	67	–
Cc1cc(O)cc(O)c1C(C)c1ccccc1 (centres unmarked) [4,5PEMR, 4-(1-phenylethyl)-5-methylbenzene-1,3-diol]	–	87	98	62	–
Cc1cc(O)cc(O)c1C1CC1 [4,5CPrMR, 4-cyclopropyl-5-methylbenzene-1,3-diol]	30	62	99	82	–
CCc1c(O)cc(O)cc1C(F)(F)F [4,5ETFMR, 2-Ethyl-1,5-dihydroxy-3-trifluoromethyl-benzene]	–	68	81	66	–
Cc1cc(O)cc(O)c1Cc1ccccc1 [4,5BnMR, 4-benzyl-5-methylbenzene-1,3-diol]	97	86	82	61	–
Oc1ccc(C2CCCCC2)c(O)c1 [Compound 4CHR, 4-cyclohexylresorcinol, reference compound]	0	63	65	36	–
Cc1cc(O)cc(O)c1C1CCCC1 [4,5CPMR, 4-cyclopentyl-5-methylbenzene-1,3-diol]	71	61	65	55	–
CC(C)c1ccc(O)cc1O [Compound 4IPR, 4-isopropylresorcinol, reference compound]	1	77	71	46	–
CCc1c(C)cc(O)cc1O [4,5EMR, 4-ethyl-5-methylbenzene-1,3-diol]	93	69	102	79	–
Oc1cc(O)c(C2CCCCC2)c(F)c1 [4,5EFR, 4-cyclohexyl-5-fluorobenzene-1,3-diol]	3	87	–	–	–
Cc1cc(O)cc(O)c1CC1CCCC1 [4,5MCPMR, 4-cyclopentylmethyl-5-methylbenzene-1,3-diol]	32	90	94	72	–
